Measurements published in patent US10988477B2 (Merck Patent GmbH, priority 2018, dated 2021).

Columns and labels:
[1] = molecular target: GCN2 kinase (Homo sapiens, UniProt Q9P2K8); assay: GCN2 enzyme inhibition assay (Transcreener ADP2 fluorescence polarization); format: biochemical; settings: 280 μM ATP
Outline: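 Kinase activity is followed as ADP formation, measured by fluorescence polarization, using 4 nM enzyme with 280 μM ATP and 200 μM (RS)7 peptide at pH 7.5 and 25 °C for 1 h. Values come from a non-linear tight-binding fit.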

[2] = molecular target: intracellular GCN2 (phosphorylation of the GCN2 substrate eIF2α) (Homo sapiens, UniProt Q9P2K8); assay: GCN2 cellular inhibition assay (AlphaScreen SureFire P-eIF2α Ser51, borrelidin-treated U2OS cells); format: cell-based; settings: biomarker assay, phosphorylated eIF2α Ser51 in borrelidin-treated U2OS cells
Sequence of intracellular GCN2 (phosphorylation of the GCN2 substrate eIF2α) (Q9P2K8 whole entry): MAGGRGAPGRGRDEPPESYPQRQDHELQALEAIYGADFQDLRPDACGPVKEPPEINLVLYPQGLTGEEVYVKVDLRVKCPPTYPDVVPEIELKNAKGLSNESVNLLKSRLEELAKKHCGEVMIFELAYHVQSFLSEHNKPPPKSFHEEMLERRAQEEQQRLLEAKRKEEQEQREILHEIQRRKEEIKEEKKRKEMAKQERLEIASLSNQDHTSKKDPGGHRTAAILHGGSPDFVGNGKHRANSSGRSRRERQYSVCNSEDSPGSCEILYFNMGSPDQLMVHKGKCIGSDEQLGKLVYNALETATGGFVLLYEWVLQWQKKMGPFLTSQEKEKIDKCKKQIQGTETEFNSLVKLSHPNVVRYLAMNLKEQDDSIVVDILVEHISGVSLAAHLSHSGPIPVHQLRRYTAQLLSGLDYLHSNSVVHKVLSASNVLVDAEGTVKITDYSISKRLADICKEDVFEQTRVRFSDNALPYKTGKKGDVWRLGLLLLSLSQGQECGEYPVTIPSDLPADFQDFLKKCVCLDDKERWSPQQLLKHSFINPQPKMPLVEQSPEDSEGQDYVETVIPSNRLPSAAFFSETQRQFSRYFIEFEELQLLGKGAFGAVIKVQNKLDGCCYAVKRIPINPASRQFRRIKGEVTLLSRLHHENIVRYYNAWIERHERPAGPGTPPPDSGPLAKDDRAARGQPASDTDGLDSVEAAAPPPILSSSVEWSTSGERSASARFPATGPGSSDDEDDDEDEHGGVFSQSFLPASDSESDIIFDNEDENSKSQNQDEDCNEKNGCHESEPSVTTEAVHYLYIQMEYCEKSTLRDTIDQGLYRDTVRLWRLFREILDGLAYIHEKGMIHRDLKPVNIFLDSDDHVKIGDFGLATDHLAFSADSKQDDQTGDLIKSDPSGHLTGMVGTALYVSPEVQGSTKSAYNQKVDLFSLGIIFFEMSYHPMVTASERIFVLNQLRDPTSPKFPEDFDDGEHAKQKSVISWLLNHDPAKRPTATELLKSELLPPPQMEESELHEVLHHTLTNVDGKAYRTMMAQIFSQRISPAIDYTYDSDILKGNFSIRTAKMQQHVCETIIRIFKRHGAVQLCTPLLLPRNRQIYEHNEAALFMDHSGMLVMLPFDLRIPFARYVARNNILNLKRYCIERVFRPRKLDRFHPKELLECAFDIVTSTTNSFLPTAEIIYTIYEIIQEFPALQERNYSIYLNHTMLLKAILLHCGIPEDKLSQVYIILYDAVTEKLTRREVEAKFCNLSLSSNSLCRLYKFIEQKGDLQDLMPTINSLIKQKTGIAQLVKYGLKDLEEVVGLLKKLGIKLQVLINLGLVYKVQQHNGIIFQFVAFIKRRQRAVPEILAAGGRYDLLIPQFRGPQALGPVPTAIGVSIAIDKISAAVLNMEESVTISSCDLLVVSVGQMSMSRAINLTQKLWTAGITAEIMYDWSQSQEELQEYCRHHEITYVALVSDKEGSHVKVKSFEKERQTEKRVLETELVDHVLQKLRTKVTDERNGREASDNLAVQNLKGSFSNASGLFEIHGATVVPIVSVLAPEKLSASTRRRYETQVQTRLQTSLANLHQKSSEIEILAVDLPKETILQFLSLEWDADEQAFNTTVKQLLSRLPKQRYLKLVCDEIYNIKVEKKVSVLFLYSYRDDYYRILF
Outline: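 U2OS cells, adhered overnight, received compounds in 4-fold serial dilutions from 40 μM final, then 10 μM borrelidin for 1 h at 37 °C. Lysates were read by AlphaScreen for phospho-eIF2α Ser51; percent inhibition was set against borrelidin-only wells.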

[3] = compounds of Formula II, 4 nM GCN2 kinase
[4] = Enzyme activity for compounds of Formula IV, Ki(app), 25° C.

Sequence of GCN2 kinase (Q9P2K8 whole entry): as above

| Structure (SMILES) | Ki [1, 3] [nM] | IC50 ([2]; compounds of Formula II) [µM] | Ki [1, 4] [nM] | IC50 ([2]; compounds of Formula IV) [µM] |
| --- | --- | --- | --- | --- |
| CCC1C(CNS(C)(=O)=O)CCCN1c1cc(-c2cnc3ccc(C(F)F)nn23)ncn1 (stereo not shown) [II-391, N-((1-(6-(6-(Difluoromethyl)imidazo[1,2-b]pyridazin-3-yl)pyrimidin-4-yl)-2-ethylpiperidin-3-yl)methyl)methanesulfonamide] | < 10 | < 0.5 | – | – |
| CN1CCN(Cc2cccc(-c3ccnc(-c4cnc5cnc(C(F)F)cn45)n3)c2)CC1 [IV-166, 6-(Difluoromethyl)-3-(4-(3-((4-methylpiperazin-1-yl)methyl)phenyl)pyrimidin-2-yl)imidazo[1,2-a]pyrazine] | – | – | 100 to 1000 | > 5 |
| O=C(c1cccc(-c2ccnc(-c3cnc4cnc(C(F)F)cn34)n2)c1)N1CCNCC1 [IV-150, (3-(2-(6-(Difluoromethyl)imidazo[1,2-a]pyrazin-3-yl)pyrimidin-4-yl)phenyl)(piperazin-1-yl)methanone] | – | – | 100 to 1000 | > 5 |
| CS(=O)(=O)NC1CCCN(c2ccnc(-c3cnc4cnc(C(F)F)cn34)n2)C1 (stereo not shown) [IV-169, N-(1-(2-(6-(Difluoromethyl)imidazo[1,2-a]pyrazin-3-yl)pyrimidin-4-yl)piperidin-3-yl)methanesulfonamide] | – | – | 100 to 1000 | > 5 |
| O=C1CCN(c2cc(-c3cnc4ccc(Cl)nn34)ccn2)CCN1 [II-187, 1-(4-(6-Chloroimidazo[1,2-b]pyridazin-3-yl)pyridin-2-yl)-1,4-diazepan-5-one] | 10 to 1000 | > 5 | – | – |
| FC(F)(F)c1cn2c(-c3nccc(N4CCNC(c5cn[nH]c5)C4)n3)cnc2cn1 (stereo not shown) [IV-211, 3-(4-(3-(1H-Pyrazol-4-yl)piperazin-1-yl)pyrimidin-2-yl)-6-(trifluoromethyl)imidazo[1,2-a]pyrazine] | – | – | < 10 | 0.5 to 5 |
| CC1CN(c2ccnc(-c3cnc4cnc(C(F)(F)F)cn34)n2)CC(c2cn[nH]c2)N1C (stereo not shown) [IV-195, 3-(4-(3,4-Dimethyl-5-(1H-pyrazol-4-yl)piperazin-1-yl)pyrimidin-2-yl)-6-(trifluoromethyl)imidazo[1,2-a]pyrazine] | – | – | 10 to 100 | 0.5 to 5 |
| CP(C)(=O)C1CC(c2cn[nH]c2)CN(c2ccnc(-c3cnc4cnc(C(F)(F)F)cn34)n2)C1 (stereo not shown) [IV-590, (5-(1H-Pyrazol-4-yl)-1-(2-(6-(trifluoromethyl)imidazo[1,2-a]pyrazin-3-yl)pyrimidin-4-yl)piperidin-3-yl)dimethylphosphine oxide] | – | – | 100 to 1000 | > 5 |
| CS(=O)(=O)NC1CCCN(c2cc(-c3cnc4ccc(C(F)(F)F)nn34)ccn2)C1 (stereo not shown) [II-231, N-(1-(4-(6-(Trifluoromethyl)imidazo[1,2-b]pyridazin-3-yl)pyridin-2-yl)piperidin-3-yl)methanesulfonamide] | 10 to 1000 | 0.5 to 5 | – | – |
| OCCC1CN(c2cc(-c3cnc4ccc(C(F)F)nn34)ccn2)CCO1 (stereo not shown) [II-146, 2-(4-(4-(6-(Difluoromethyl)imidazo[1,2-b]pyridazin-3-yl)pyridin-2-yl)morpholin-2-yl)ethanol] | 10 to 1000 | 0.5 to 5 | – | – |
| O=C1CC2(CCN(c3cc(-c4cnc5ccc(C(F)F)nn45)ncn3)CC2)N1 [II-52, 7-(6-(6-(Difluoromethyl)imidazo[1,2-b]pyridazin-3-yl)pyrimidin-4-yl)-1,7-diazaspiro[3.5]nonan-2-one] | 10 to 1000 | > 5 | – | – |
| CC1C(CNS(C)(=O)=O)OCCN1c1cc(-c2cnc3ccc(C(F)F)nn23)ncn1 (single isomer, unassigned) [II-372, N-((4-(6-(6-(Difluoromethyl)imidazo[1,2-b]pyridazin-3-yl)pyrimidin-4-yl)-3-methylmorpholin-2-yl)methyl)methanesulfonamide] | > 1000 | > 5 | – | – |
| CC1CN(c2ccnc(-c3cnc4cnc(Cl)cn34)n2)CC(c2cn[nH]c2)O1 (single isomer, unassigned) [IV-217, 4-(2-(6-Chloroimidazo[1,2-a]pyrazin-3-yl)pyrimidin-4-yl)-2-methyl-6-(1H-pyrazol-4-yl)morpholine] | – | – | < 10 | < 0.5 |
| CC1CC(CS(C)(=N)=O)C(C)N(c2ccnc(-c3cnc4cnc(C(F)F)cn34)n2)C1 (single isomer, unassigned) [IV-368, ((1-(2-(6-(Difluoromethyl)imidazo[1,2-a]pyrazin-3-yl)pyrimidin-4-yl)-2,5-dimethylpiperidin-3-yl)methyl)(imino)(methyl)-λ^6-sulfanone] | – | – | 100 to 1000 | > 5 |
| Fc1n[nH]cc1C1CCCN(c2ccnc(-c3cnc4cnc(C(F)(F)F)cn34)n2)C1 (single isomer, unassigned) [IV-492, 3-(4-(3-(3-Fluoro-1H-pyrazol-4-yl)piperidin-1-yl)pyrimidin-2-yl)-6-(trifluoromethyl)imidazo[1,2-a]pyrazine] | – | – | < 10 | < 0.5 |
| CC1C(CS(N)(=O)=O)CCCN1c1cc(-c2cnc3ccc(C(F)F)nn23)ncn1 (stereo not shown) [II-424, (1-(6-(6-(Difluoromethyl)imidazo[1,2-b]pyridazin-3-yl)pyrimidin-4-yl)-2-methylpiperidin-3-yl)methanesulfonamide] | < 10 | < 0.5 | – | – |
| CC1C(c2cn[nH]c2)NCCN1c1ccnc(-c2cnc3cnc(Br)cn23)n1 (single isomer, unassigned) [IV-350, 6-Bromo-3-(4-(2-methyl-3-(1H-pyrazol-4-yl)piperazin-1-yl)pyrimidin-2-yl)imidazo[1,2-a]pyrazine] | – | – | 100 to 1000 | 0.5 to 5 |
| CC1CN(c2cc(N3CCC3)nc(-c3cnc4cnc(C(F)(F)F)cn34)n2)C(C)C(c2cn[nH]c2)N1 (stereo not shown) [IV-637, 3-(4-(Azetidin-1-yl)-6-(2,5-dimethyl-3-(1H-pyrazol-4-yl)piperazin-1-yl)pyrimidin-2-yl)-6-(trifluoromethyl)imidazo[1,2-a]pyrazine] | – | – | < 10 | 0.5 to 5 |
| N#CCc1cccc(-c2ccnc(-c3cnc4cnc(C(F)F)cn34)n2)c1 [IV-157, 2-(3-(2-(6-(Difluoromethyl)imidazo[1,2-a]pyrazin-3-yl)pyrimidin-4-yl)phenyl)acetonitrile] | – | – | 100 to 1000 | > 5 |
| CS(=O)(=O)NCC1CN(c2cc(-c3cnc4ccc(C(F)F)nn34)ncn2)CC(C2CC2)O1 (stereo not shown) [II-440, N-((6-Cyclopropyl-4-(6-(6-(difluoromethyl)imidazo[1,2-b]pyridazin-3-yl)pyrimidin-4-yl)morpholin-2-yl)methyl)methanesulfonamide] | 10 to 1000 | 0.5 to 5 | – | – |
| CC(=O)N1CCN(c2ccnc(-c3cnc4cnc(Br)cn34)n2)CC1 [IV-32, 1-(4-(2-(6-Bromoimidazo[1,2-a]pyrazin-3-yl)pyrimidin-4-yl)piperazin-1-yl)ethan-1-one] | – | – | 100 to 1000 | 0.5 to 5 |
| CS(=O)(=O)NCC1COCCN(c2cc(-c3cnc4ccc(C(F)F)nn34)ncn2)C1 (stereo not shown) [II-481, N-((4-(6-(6-(Difluoromethyl)imidazo[1,2-b]pyridazin-3-yl)pyrimidin-4-yl)-1,4-oxazepan-6-yl)methyl)methanesulfonamide] | 10 to 1000 | 0.5 to 5 | – | – |
| CC1CN(c2cc(-c3cnc4ccc(C(F)(F)F)nn34)ncn2)C(C)C(c2cn[nH]c2)N1 (stereo not shown) [II-698] | < 10 | 0.5 to 5 | – | – |
